Test results reported in patent US20110044938A1 (NYCOMED GMBH, priority 2006, published 2011).

Experiments:
[1] = test system: subclones of RKO colon adenocarcinoma cells (RKOp27 or RKOp21) arrested by Ponasterone A; experiment: Alamar Blue cell viability assay, cell cycle specific mode of action: cells arrested by ectopic p27Kip1 induced by Ponasterone A versus proliferating cells; assay type: cell-based; details: Homo sapiens, RKO p27 induced (arrested) cells, 10 μM Ponasterone A, 72 hours, value = class bound given in Table A, read-out: −logIC50 RKO p27 induced (arrested) (converted)
Summary of the method: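 RKOp27 or RKOp21 cells, 15000/well in DMEM/10% FCS, either arrested by p27Kip1 induced with 10 μM Ponasterone A or proliferating without inducer; compound added after 24 h, 72 h at 37° C. Alamar Blue fluorescence (544/590 nm), viability as % of untreated cells; −log IC50 reported.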

[2] = test system: RKO (RKOp27) human colon adenocarcinoma cells; experiment: Alamar Blue cell viability assay, anti-proliferative/cytotoxic activity on proliferating RKO subclones; assay type: cell-based; details: RKOp27, 72 h, RKO p27 uninduced (proliferating) cells, value = class bound given in Table A, read-out: −logIC50 RKO p27 uninduced (proliferating) (converted)
Summary of the method: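 RKOp27 subclones (5000 cells/well) were exposed 24 h after seeding to semi-log compound dilutions in DMEM with 10% FCS, in quadruplicate, for 72 h at 37 °C. Viability was read by Alamar Blue fluorescence (544/590 nm) relative to untreated cells (1% DMSO medium). IC50 came from concentration-effect curves and is reported as −log IC50 [mol/l].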

Structure (SMILES) | IC50 [1] | IC50 [2]
N#Cc1c(NC(=O)/C=C/c2cccnc2)sc2c1CCC(COC(=O)NCC1CCCO1)C2 (stereo not shown) [Example 63, (Tetrahydro-furan-2-ylmethyl)-carbamic acid 3-cyano-2-((E)-3-pyridin-3-yl-allanoylamino)-4,5,6,7-tetrahydro-benzo[b]thiophen-6-ylmethyl ester] | ≥ 100000 nM | 501 to 2000 nM
CCOc1ccccc1/C=C/C(=O)Nc1sc2c(c1C#N)CCC(COC(=O)NCCn1ccnc1)C2 (stereo not shown) [Example 32, (2-Imidazol-1-yl-ethyl)-carbamic acid 3-cyano-2-[(E)-3-(2-ethoxy-phenyl)-allanoylamino]-4,5,6,7-tetrahydro-benzo[b]thiophen-6-ylmethyl ester] | ≥ 100000 nM | 501 to 2000 nM
N#Cc1c(NC(=O)/C=C/c2cccnc2)sc2c1CCC(OC(=O)NCc1cccnc1)C2 (stereo not shown) [Example 35, Pyridin-3-ylmethyl-carbamic acid 3-cyano-2-((E)-3-pyridin-3-yl-allanoylamino)-4,5,6,7-tetrahydro-benzo[b]thiophen-6-yl ester] | ≥ 100000 nM | 501 to 2000 nM
COc1cccc(CCC(=O)Nc2sc3c(c2C#N)CCC(OC(=O)NCc2cc(C)nn2C)C3)c1 (stereo not shown) [Example 226, (2,5-Dimethyl-2H-pyrazol-3-ylmethyl)-carbamic acid 3-cyano-2-[3-(3-methoxy-phenyl)-propanoylamino]-4,5,6,7-tetrahydro-benzo[b]thiophen-6-yl ester] | ≥ 100000 nM | ≤ 501 nM
CCNC(=O)OC1CCc2c(sc(NC(=O)CCc3cccc(OC)c3)c2C#N)C1 (stereo not shown) [Example 248, Ethyl-carbamic acid 3-cyano-2-[3-(3-methoxy-phenyl)-propanoylamino]-4,5,6,7-tetrahydro-benzo[b]thiophen-6-yl ester] | ≥ 100000 nM | ≤ 501 nM
CCOC(=O)OC1CCc2c(sc(NC(=O)CCc3ccccc3OCC)c2C#N)C1 (stereo not shown) [Example 152, Carbonic acid 3-cyano-2-[3-(2-ethoxy-phenyl)-propanoylamino]-4,5,6,7-tetrahydro-benzo[b]thiophen-6-yl ester ethyl ester] | ≥ 100000 nM | ≤ 501 nM
Cc1cc(CNC(=O)OC2CCc3c(sc(NC(=O)CC(C)c4ccccc4)c3C#N)C2)no1 (stereo not shown) [Example 295, (5-Methyl-isoxazol-3-ylmethyl)-carbamic acid 3-cyano-2-(3-phenyl-butanoylamino)-4,5,6,7-tetrahydro-benzo[b] thiophen-6-yl ester] | ≥ 50100 nM | ≤ 501 nM
CCOc1ccccc1CCC(=O)Nc1sc2c(c1C#N)CCC(OC(=O)NCc1conc1C)C2 (stereo not shown) [Example 205, (3-Methyl-isoxazol-4-ylmethyl)-carbamic acid 3-cyano-2-[3-(2-ethoxy-phenyl)-propanoylamino]-4,5,6,7-tetrahydro-benzo[b]thiophen-6-yl ester] | ≥ 100000 nM | ≤ 501 nM
CC(CC(=O)Nc1sc2c(c1C#N)CCC(COC(=O)NCc1cnn(C)c1)C2)c1cccnc1 (stereo not shown) [Example 281, (1-Methyl-1H-pyrazol-4-ylmethyl)-carbamic acid 3-cyano-2-(3-pyridin-3-yl-butanoyl-amino)-4,5,6,7-tetrahydro-benzo[b] thiophen-6-ylmethyl ester] | ≥ 100000 nM | 501 to 2000 nM
COC(=O)OCC1CCc2c(sc(NC(=O)CCc3cccc(OC)c3)c2C#N)C1 (stereo not shown) [Example 255, Carbonic acid 3-cyano-2-[3-(3-methoxy-phenyl)-propanoylamino]-4,5,6,7-tetrahydro-benzo[b]thiophen-6-ylmethyl ester methyl ester] | ≥ 100000 nM | 501 to 2000 nM
CC(CC(=O)Nc1sc2c(c1C#N)CCC(COC(=O)NC1CCOCC1)C2)c1ccccc1 (stereo not shown) [Example 309, (Tetrahydro-pyran-4-yl)-carbamic acid 3-cyano-2-(3-phenyl-butanoylamino)-4,5,6,7-tetrahydro-benzo[b]thiophen-6-ylmethyl ester] | ≥ 50100 nM | ≤ 501 nM
N#Cc1c(NC(=O)/C=C/c2cccnc2)sc2c1CCC(COC(=O)N1CC(F)C1)C2 (stereo not shown) [Example 121, 3-Fluoro-azetidine-1-carboxylic acid 3-cyano-2-((E)-3-pyridin-3-yl-allanoylamino)-4,5,6,7-tetrahydro-benzo[b]thiophen-6-ylmethyl ester] | ≥ 100000 nM | ≤ 501 nM
Cc1n[nH]cc1CNC(=O)OC1CCc2c(sc(NC(=O)CC(C)c3ccccc3)c2C#N)C1 (stereo not shown) [Example 298, (3-Methyl-1H-pyrazol-4-ylmethyl)-carbamic acid 3-cyano-2-(3-phenyl-butanoylamino)-4,5,6,7-tetrahydro-benzo[b]thiophen-6-yl ester] | ≥ 10000 nM | ≤ 501 nM
COc1cccc(CCC(=O)Nc2sc3c(c2C#N)CCC(COC(=O)NCC2CCCO2)C3)c1 (stereo not shown) [Example 241, (Tetrahydro-furan-2-ylmethyl)-carbamic acid 3-cyano-2-[3-(3-methoxy-phenyl)-propanoylamino]-4,5,6,7-tetrahydro-benzo[b]thiophen-6-ylmethyl ester] | ≥ 100000 nM | 501 to 2000 nM
CC(CC(=O)Nc1sc2c(c1C#N)CCC(COC(=O)NCc1cccn1C)C2)c1ccccc1 (stereo not shown) [Example 319, (1-Methyl-1H-pyrrol-2-ylmethyl)-carbamic acid 3-cyano-2-(3-phenyl-butanoylamino)-4,5,6,7-tetrahydro-benzo[b] thiophen-6-ylmethyl ester] | ≥ 50100 nM | ≤ 501 nM
COc1cccc(C(C)CC(=O)Nc2sc3c(c2C#N)CCC(OC(=O)NCc2cccnc2)C3)c1 (stereo not shown) [Example 268, Pyridin-3-ylmethyl-carbamic acid 3-cyano-2-[3-(3-methoxy-phenyl)-butanoylamino]-4,5,6,7-tetrahydro-benzo[b]thiophen-6-yl ester] | ≥ 100000 nM | 501 to 2000 nM
COc1cccc(CCC(=O)Nc2sc3c(c2C#N)CCC(COC(=O)NCCn2ccnc2)C3)c1 (stereo not shown) [Example 236, (2-Imidazol-1-yl-ethyl)-carbamic acid 3-cyano-2-[3-(3-methoxy-phenyl)-propanoylamino]-4,5,6,7-tetrahydro-benzo[b]thiophen-6-ylmethyl ester] | ≥ 100000 nM | 501 to 2000 nM
COCCNC(=O)OC1CCc2c(sc(NC(=O)CCc3cccc(OC)c3)c2C#N)C1 (stereo not shown) [Example 218, (2-Methoxy-ethyl)-carbamic acid 3-cyano-2-[3-(3-methoxy-phenyl)-propanoylamino]-4,5,6,7-tetrahydro-benzo[b]thiophen-6-yl ester] | ≥ 100000 nM | ≤ 501 nM
Cc1cc(CNC(=O)OC[C@@H]2CCc3c(sc(NC(=O)/C=C/c4cccnc4)c3C#N)C2)no1 [Example 47b, (5-Methyl-isoxazol-3-ylmethyl)-carbamic acid (R)-3-cyano-2-((E)-3-pyridin-3-yl-allanoylamino)-4,5,6,7-tetrahydro-benzo[b]thiophen-6-ylmethyl ester] | ≥ 100000 nM | ≤ 501 nM
N#Cc1c(NC(=O)/C=C/c2cccnc2)sc2c1CCC(COC(=O)NCC1CC1)C2 (stereo not shown) [Example 105, Cyclopropylmethyl-carbamic acid 3-cyano-2-((E)-3-pyridin-3-yl-allanoylamino)-4,5,6,7-tetrahydro-benzo[b]thiophen-6-ylmethyl ester] | ≥ 100000 nM | ≤ 501 nM
